The values that follow come from PubChem BioAssay (NCI).

SMILES strings stand for the structures.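 Dose response: 5 concentrations. Exposure: 48 h. Format: 96-well plates. Endpoint: linear interpolation; highest concentration if not reached. GI50 is the concentration that inhibits growth by half. TGI denotes the concentration required for complete inhibition of growth.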

Test systems include 786-0 renal; A549 NSCLC; HOP-62 NSCLC; MALME-3M melanoma; MDA-MB-231 breast; MDA-MB-435; MOLT-4 leukemia; NCI/ADR-RES ovarian; SF-295 CNS; SK-MEL-5 melanoma.
What all share (test): inhibition of tumour cell growth, NCI panel, 48 h

With `OCc1ccc(-c2nc(-c3ccc4c(c3)OCO4)c(-c3ccccn3)[nH]2)cc1`, the GI50 is greater than 25 µM in the test with 786-0 renal; greater than 25 µM in the test on A549 NSCLC; greater than 25 µM in the test with HOP-62 NSCLC; greater than 25 µM in the test on MALME-3M melanoma; 10.2 µM in the test with MDA-MB-231 breast; greater than 25 µM in the test with MDA-MB-435. For the same compound, the GI50 is greater than 25 µM with MOLT-4 leukemia, 10.4 µM in the test on NCI/ADR-RES ovarian, greater than 25 µM in the test with SF-295 CNS and greater than 20 µM in the test with SK-MEL-5 melanoma. In addition, the TGI with 786-0 renal, with A549 NSCLC, with HOP-62 NSCLC, in the test on MALME-3M melanoma, in the test with MDA-MB-231 breast and in the test on MDA-MB-435 was greater than 25 µM each time. The TGI in the test on MOLT-4 leukemia, in the test with NCI/ADR-RES ovarian, with SF-295 CNS and in the test with SK-MEL-5 melanoma was greater than 25 µM each time.

Take `CCOC(=O)Cc1csc(NC(=O)C(OC(=O)c2ccc(Cl)cc2)c2ccccc2)n1` (stereo not given): the GI50 with 786-0 renal was 42.8 µM; with A549 NSCLC it was 47.1 µM; in the test with HOP-62 NSCLC, 44.1 µM; in the test with MALME-3M melanoma, 47.9 µM; in the test on MDA-MB-231 breast it was 31.7 µM; in the test with MDA-MB-435, 28.1 µM. The GI50 was 26 µM in the test on MOLT-4 leukemia, 41.1 µM in the test on NCI/ADR-RES ovarian, 24.6 µM in the test on SF-295 CNS and 18 µM in the test with SK-MEL-5 melanoma. In addition, the TGI in the test with 786-0 renal is greater than 100 µM; in the test with A549 NSCLC, greater than 100 µM; with HOP-62 NSCLC it was greater than 100 µM; in the test on MALME-3M melanoma, greater than 100 µM; in the test on MDA-MB-231 breast it was greater than 100 µM; in the test on MDA-MB-435 it was 75.6 µM. For the same compound, the TGI is greater than 100 µM in the test with MOLT-4 leukemia, greater than 100 µM in the test with NCI/ADR-RES ovarian, 56.8 µM with SF-295 CNS and 36 µM in the test with SK-MEL-5 melanoma.

On to `N#Cc1c(N)nc2c(c1-c1ccc(Cl)cc1)COc1ccc(F)cc1-2`, for which the GI50 in the test with 786-0 renal is 28.7 µM; with A549 NSCLC, 43.5 µM; in the test with HOP-62 NSCLC, 25.1 µM; with MALME-3M melanoma, 40.3 µM; in the test with MDA-MB-231 breast, 11.9 µM; in the test on MDA-MB-435, 20.7 µM. For the same compound, the GI50 is 22.2 µM in the test with MOLT-4 leukemia, 22.9 µM in the test with NCI/ADR-RES ovarian, 16 µM in the test with SF-295 CNS and 20.6 µM with SK-MEL-5 melanoma. Moreover, the TGI with 786-0 renal was 72.8 µM; in the test on A549 NSCLC, greater than 100 µM; with HOP-62 NSCLC, 75.2 µM; with MALME-3M melanoma, 81.7 µM; in the test with MDA-MB-231 breast it was 51.8 µM; in the test on MDA-MB-435 it was 45.2 µM. For the same compound, the TGI is 44.6 µM in the test with MOLT-4 leukemia, 54.6 µM in the test on NCI/ADR-RES ovarian, 37.1 µM with SF-295 CNS and 37.6 µM with SK-MEL-5 melanoma.

As to `Clc1cc(Br)ccc1-c1ccc(CNCC2CCNCC2)o1`, the GI50 was 1.55 µM in the test on 786-0 renal; 1.9 µM in the test with A549 NSCLC; 1.84 µM in the test with HOP-62 NSCLC; 2.33 µM in the test with MALME-3M melanoma; 1.59 µM in the test with MDA-MB-231 breast; 1.84 µM in the test on MDA-MB-435. In addition, the GI50 in the test with MOLT-4 leukemia was 1.7 µM; in the test with NCI/ADR-RES ovarian, 3.13 µM; with SF-295 CNS it was 1.94 µM; in the test on SK-MEL-5 melanoma it was 1.76 µM. The TGI came out at 3.06 µM with 786-0 renal; 3.77 µM with A549 NSCLC; 3.43 µM with HOP-62 NSCLC; 4.11 µM with MALME-3M melanoma; 3.42 µM in the test on MDA-MB-231 breast; 3.46 µM in the test with MDA-MB-435. The TGI in the test with MOLT-4 leukemia was 3.57 µM; in the test on NCI/ADR-RES ovarian it was 9.69 µM; in the test with SF-295 CNS it was 3.99 µM; in the test with SK-MEL-5 melanoma, 3.2 µM.

For the compound `CCOC(=O)c1ccc(N2NC(=O)/C(=C/c3ccc([N+](=O)[O-])o3)C2=O)cc1`, the GI50 in the test on 786-0 renal is 19.1 µM; in the test with A549 NSCLC, greater than 44.7 µM; with HOP-62 NSCLC it was 29.9 µM; in the test with MALME-3M melanoma, 15.6 µM; with MDA-MB-231 breast, 22.5 µM; in the test with MDA-MB-435, 15.1 µM. Besides, the GI50 is 11.3 µM in the test with MOLT-4 leukemia, 25.9 µM in the test on NCI/ADR-RES ovarian, greater than 39 µM in the test on SF-295 CNS and greater than 40.4 µM in the test on SK-MEL-5 melanoma. The TGI in the test with 786-0 renal was 37.3 µM; with A549 NSCLC, greater than 60.6 µM; in the test on HOP-62 NSCLC, greater than 55.7 µM; in the test with MALME-3M melanoma, 35.1 µM; with MDA-MB-231 breast, 52.9 µM; in the test on MDA-MB-435, 33 µM. The TGI in the test with MOLT-4 leukemia is 53.1 µM; with NCI/ADR-RES ovarian, greater than 71.8 µM; with SF-295 CNS it was greater than 56.1 µM; in the test on SK-MEL-5 melanoma, greater than 54.9 µM.
